The IC50 is the concentration needed to halve the response being measured.

This note sets out measurements from ChEMBL document CHEMBL2074149, “Structural and functional characteristics and tissue distribution pattern of rat OCTN1, an organic cation transporter, cloned from placenta” (Biochim Biophys Acta, 2000).

Type in all cases: functional, cell-based
In series [1] the target is T1, Solute carrier family 22 member 4 (Rattus norvegicus, UniProt Q9R141).
T1 sequence (Q9R141 whole entry): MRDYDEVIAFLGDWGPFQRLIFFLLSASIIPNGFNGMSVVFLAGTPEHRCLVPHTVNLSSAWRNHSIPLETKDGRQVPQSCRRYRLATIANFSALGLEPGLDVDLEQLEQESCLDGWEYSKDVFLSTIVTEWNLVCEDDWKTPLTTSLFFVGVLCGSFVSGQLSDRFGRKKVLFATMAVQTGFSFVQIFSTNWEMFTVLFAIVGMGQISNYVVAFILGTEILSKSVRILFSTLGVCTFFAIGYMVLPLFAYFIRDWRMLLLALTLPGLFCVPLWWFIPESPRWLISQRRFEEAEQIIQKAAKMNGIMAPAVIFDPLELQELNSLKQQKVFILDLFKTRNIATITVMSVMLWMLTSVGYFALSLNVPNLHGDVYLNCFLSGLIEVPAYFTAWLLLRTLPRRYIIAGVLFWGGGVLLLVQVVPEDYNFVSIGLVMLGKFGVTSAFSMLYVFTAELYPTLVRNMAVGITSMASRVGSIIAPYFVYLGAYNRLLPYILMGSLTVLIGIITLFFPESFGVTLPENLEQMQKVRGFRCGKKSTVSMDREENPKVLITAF
The series can be described thus: TP_TRANSPORTER: inhibition of TEA uptake in Octn1-HRPE cells.

Series [2] addresses T2, OCTN1 (Solute carrier family 22 member 4, SLC22A4) (Rattus norvegicus, UniProt Q9R141).
T2 sequence (Q9R141 whole entry): T1 sequence (Q9R141 whole entry)
Put plainly: TP_TRANSPORTER: inhibition of TEA uptake by Verapamil at 5mM in Octn1-HRPE cells. Set-up: scale not given: the % may be the effect or the level left. To be noted: human, HRPE cells that express Octn1, probe TEA (tetraethylammonium); read-out: Activity.

For series [3], the target named is T1, Solute carrier family 22 member 4. Put plainly: TP_TRANSPORTER: inhibition of TEA uptake by Amiloride at 1mM in Octn1-HRPE cells. Also on record: scale not given: the % may be the effect or the level left. The settings on record: human, 1000 µM.
In series [4] the target is T2, OCTN1 (Solute carrier family 22 member 4, SLC22A4). Put plainly: TP_TRANSPORTER: inhibition of TEA uptake by 1-methyl-4-phenylpyridinium at 5mM in Octn1-HRPE cells. Also on record: scale not given: the % may be the effect or the level left. The settings on record: human, HRPE cells that express Octn1, probe TEA (tetraethylammonium); read-out: Activity.
For series [5] the target is unchanged. Put plainly: TP_TRANSPORTER: inhibition of TEA uptake by Imipramine at 1mM in Octn1-HRPE cells. Also on record: scale not given: the % may be the effect or the level left. To be noted: human, HRPE cells that express Octn1, probe TEA (tetraethylammonium); read-out: Activity.

As for `CN(C)c1nc(N)c(C(=O)NC(=N)N)nc1Cl`, inhibition in series [1] was half-maximal at 200 µM (IC50). On the same count and under the same terms, to `CN/C(=N/CCSCc1nc[nH]c1C)NC#N` [CIMETIDINE] belongs 1500 µM. As for `COc1ccc(CCN(C)CCCC(C#N)(c2ccc(OC)c(OC)c2)C(C)C)cc1OC` (centres undefined) [VERAPAMIL], the activity at 5000 µM in series [2] was 20%. In the case of `N=C(N)NC(=O)c1nc(Cl)c(N)nc1N` [AMILORIDE], the Activity in series [3] was determined as 79%. Consider `CNCCCN1c2ccccc2CCc2ccccc21` [DESIPRAMINE], for which half-maximal inhibition in series [1] (IC50) was put at 80 µM. For the compound `CC[N+](CC)(CC)CC` [TETRYLAMMONIUM], half-maximal inhibition in series [1] (IC50) required 1000 µM. Turning to `C[n+]1ccc(-c2ccccc2)cc1`, the activity at 5000 µM in series [4] was 62%. For `CN(C)CCCN1c2ccccc2CCc2ccccc21` [IMIPRAMINE], the activity at 1000 µM in series [5] turned out to be 31%. Take `CCN(CC)CCNC(=O)c1ccc(N)cc1` [PROCAINAMIDE]: 1000 µM corresponded to half-maximal inhibition in series [1] (IC50).
